From patent US4863920A, “Imidazodiazepine derivatives for treatment of disorders of the central nervous system” (Hoffmann-La Roche Inc., priority 1987, dated 1989)

Tests used:
[1] = tested on: diazepam effect in the pentetrazole test; assay: Antagonism of diazepam in the pentetrazole test; type: in vivo; conditions: Mus musculus, po; mice; diazepam 5 mg/kg i.p. one hour before and compound p.o. 15 minutes before pentetrazole 120 mg/kg i.p.; read-out: Antagonism of diazepam ED 50
Procedure: This property was used to elaborate the test described hereinafter which permits the investigation of compounds capable of antagonizing the central properties of 1,4-benzodiazepines having tranquillizing activity.
(§1) The antagonistic activity of the compounds investigated, that is, their capability to counteract the effect of the diazepam in the pentetrazole test, is determined by counting the mice which suffer spasmodic seizures in this test. The ED50 denotes the amount of the respective test compound in mg/kg (p.o.) which in 50% of the animals counteracts the diazepam effect in the above test.

[2] = target: central benzodiazepine receptors (cerebral cortex); assay: Affinity to benzodiazepine receptors (inhibition of tritiated diazepam binding in cerebral cortex); conditions: inhibition of specific binding of tritiated diazepam, read-out: Affinity to benzodiazepine receptors IC 50
Procedure: The affinity of compounds of formula I to the central benzodiazepine receptors was determined according to the method described in Life Science 20, 2101-2110 (1977) and Science 198, 849-851 (1977). According to this method, the inhibition of the binding of tritiated diazepam at the specific benzodiazepine receptors in the cerebral cortex by the respective test substances is ascertained. The IC50 ("50% inhibiting concentration") is that concentration of the respective test substance which brings about a 50 percent inhibition of the specific binding of the tritiated diazepam at the specific benzodiazepine receptors in the cerebral cortex.

[3] = Acute toxicity, single oral administration to rats; conditions: rat, in vivo, read-out: Toxicity LD 50
From the text: The results which have been obtained with representative members of the class of compound defined by formula I in the experiments described previously are compiled in the following Table. Moreover, the Table contains data concerning the acute toxicity of some of these compounds (LD50 in mg/kg in the case of single oral administration to rats).

[4] = tested on: pentetrazole-induced spasmodic seizures; assay: Antipentetrazole test (protection from pentetrazole seizures); type: in vivo; conditions: Rattus norvegicus, po; female rats 60-80 g; p.o. 30 minutes before 120 mg/kg pentetrazole i.p.; 10 animals per dosage; Probit; read-out: Antipemtetrazole test ED 50
Procedure: The central properties of the compounds of formula I in accordance with the invention can be determined, for example, in the antipentetrazole animal model which is described hereinafter and which is generally recognized for recording anticonvulsant properties.
In this animal model, the compound under investigation is administered orally to female rats weighing 60-80 g and 30 minutes later there are administered i.p. 120 mg/kg of pentetrazole, which causes emprosthotonus and tonic stretchings of the fore and/or hind limbs in unprotected experimental animals 1-4 minutes after the injection. Ten experimental animals are used per dosage of test substance. After counting the protected experimental animals the ED50 is determined according to the Probit method. The ED50 is that dosage which protects 50% of the experimental animals from the spasmodic seizures caused by pentetrazole.

[5] = tested on: pentetrazole-induced spasmodic seizures; assay: Pentetrazole test, protection by diazepam; type: in vivo; conditions: 5 mg/kg (i.p.) diazepam, supramaximal dosage; more than 900 mice
Procedure: as §1

Compound | ED50 [1] [mg/kg] | IC50 [2] [nM] | LD50 [3] [mg/kg] | ED50 [4] [mg/kg] | protection from spasmodic seizures in the pentetrazole test [5]
C#Cc1ncn2c1CN(C)C(=O)c1c(Cl)cccc1-2 [A, 7-chloro-3-ethynyl-4,5-dihydro-5-methyl-6H-imidazo[1,5-a][1,4]benzodiazepin-6-one] | 0.24 | 4.5 | 312 to 625 | – | –
C#Cc1ncn2c1CN(C)C(=O)c1cc(F)ccc1-2 [B, 3-ethynyl-8-fluoro-4,5-dihydro-5-methyl-6H-imidazo[1,5-a][1,4]benzodiazepine-6-one] | 1.5 | 24 | 312 to 625 | – | –
CC#Cc1ncn2c1CN(C)C(=O)c1c(Cl)cccc1-2 [C, 7-chloro-4,5-dihydro-5-methyl-3-(1-propynyl)-6H-imidazo[1,5-a][1,4]benzodiazepin-6-one] | 0.36 | 2.3 | > 5000 | – | –
C#Cc1ncn2c1[C@@H]1CCCN1C(=O)c1c(Cl)cccc1-2 [D, (S)-8-chloro-1-ethynyl-11,12,13,13a-tetrahydro-9H-imidazo[1,5-a]pyrrolo[2,1-c][1,4]benzodiazepin-9-one] | > 50 | 2.4 | > 4000 | 1.5 | –
CN1Cc2c(C#CC(C)(C)O)ncn2-c2cccc(Br)c2C1=O [E, 7-bromo-4,5-dihydro-3-(3-hydroxy-3-methyl-1-butynyl)-5-methyl-6H-imidazo[1,5-a][1,4]benzodiazepin-6-one] | – | 2 | 500 to 1000 | 0.29 | –
C=Cc1ncn2c1CN(C)C(=O)c1c(Cl)cccc1-2 [F, 7-chloro-4,5-dihydro-5-methyl-3-vinyl-6H-imidazo[1,5-a][1,4]benzodiazepin-6-one] | 1.2 | 7.6 | 1250 to 2500 | – | –
CN1C(=O)CN=C(c2ccccc2)c2cc(Cl)ccc21 [diazepam] | – | – | – | – | protected all experimental animals from spasmodic seizures
